Source: patent publication US20060134738A1, “Gene expression inducing fusion protein and method for controlling gene expression Induction” (priority 2003, published 2006)

Legend:
Type in all cases: cell-based
[1] = system: farnesylation of R17-4G-CVLS; test: LucF/LucR induction in HeLa clone with integrated R17-4G-CVLS, prenyltransferase inhibitors (FIG. 2A, 2B); details: for induction (quotient of LucF and LucR relative to the DMSO control): reporters pCRL138 and pCRL138-R17, FIG. 2A
Protocol: The nucleic acid encoding the R17-4G-CVLS protein is integrated into the genome of HeLa cells. The reporter plasmids pCRL138 and pCRL138-R17 are transiently transfected into this clone. The products that act on farnesylation of R17-4G-CVLS are then sought.
DMSO is the solvent in which the products (FTI 277 and GGTI 298) that are added to the culture medium are dissolved, and therefore represents an induction control.
The white rectangles represent the RNA which carries the R17 protein recognition sequence. The black rectangles represent the activities obtained under the same conditions with an RNA sequence that is similar but no longer carries the R17 recognition; it is therefore the negative control for the first construct.
The induction is represented by the quotient of the LucF and LucR values measured directly in the presence of an agent (FTI 277 or GGTI 298), relative to the DMSO control.

[2] = system: proteins containing CVLS, CVLL or SVLS boxes in HeLa cells; test: Subcellular localization of fusion proteins by fluorescence microscopy (FIGS. 6A and B); details: treatment 8 hours, immunofluorescence with anti-HA antibody
Text: Moreover, the subcellular localization of proteins containing CVLS, CVLL or SVLS boxes was verified.
To do this, these boxes were fused with the YFP protein (yellow fluorescent protein), and all the fusion proteins were cloned with an HA sequence in the N-terminal position. The constructs were transiently transfected into HeLa cells, and the localization of the fusion proteins was followed by fluorescence microscopy after immunofluorescence with an anti-HA antibody (FIGS. 6A and B, in color).

[3] = system: R17-4G-CAAX constructs (CVLS, CVLL, SVLS) in HeLa cells; test: Translation activation in HeLa clones with integrated reporter, transiently transfected with R17-4G-CAAX constructs (FIG. 5); details: for activation of translation relative to the DMSO controls, R17-4G-SVLS: construct neither farnesylated nor geranylated; for activation of translation relative to the DMSO controls, R17-4G-CVLS: construct with farnesylations box; for activation of translation relative to the DMSO controls, R17-4G-CVLL: construct with geranylations box
Protocol: The pCRL138 or pCRL138-R17 reporter sequences are integrated into the genome of HeLa cells, and various R17-4G-CAAX constructs—where CAAX can be farnesylated, “CVLS”, or geranylgeranylated, “CVLL”, or no longer undergo any post-translational modifications of this type, “SVLS”,—are transiently transfected into these two clones.
After transfection, the cells are treated with FTI 277 (farnesyltransferase inhibitor) or GGTI 298 (geranyltransferase inhibitor).

[4] = system: HMGCoA-reductase; test: LucF/LucR ratio in HeLa cells stably transfected with R17-4G-CVLS, screening of HMGCoA-reductase inhibitors (FIG. 3); details: for HMGCoA-reductase inhibiting activity (LucF/LucR ratio relative to a DMSO control): HeLa stably R17-4G-CVLS, reporters pCRL138 and pCRL138-R17, FIG. 3; for effect of mevalonate on the inhibitory activity (LucF/LucR ratio): in the presence of mevalonate, FIG. 3
Text: HMGCoA-reductase, which synthesizes melavonate, is involved in isoprenylation, a post-translational modification of proteins such as 4G-CVLS.
In FIG. 3, the cells used during these tests are HeLa cells stably transfected with the plasmid encoding the R17-4G-CVLS fusion protein, and transiently transfected with the bicistronic reporter plasmids pCRL138 and pCRL138-R17.
The results are given in the form of the ratio of LucF/LucR activity in the presence of various pharmacological agents in the culture medium, relative to a DMSO control.
The model used also made it possible to screen potential HMGCoA-reductase inhibiting agents.

[5] = system: Farnesyl Pyrophosphate Synthase, also called FPP-synthase; test: LucF/LucR ratio in HeLa cells stably transfected with R17-4G-CVLS, FPP-synthase inhibitors (FIG. 4); details: HeLa stably R17-4G-CVLS
Text: This enzyme is required for the biosynthesis of farnesyl pyrophosphates.
In these tests represented in FIG. 4, the same cellular model as in b), stably transfected with R17-4G-CVLS, is used.

[6] = system: p27Kip1 protein expression in CHO (Chinese hamster ovary) cells; test: p27 expression by Western blotting in cotransfected CHO cells (FIG. 7); details: 8 hours
Text: The reporter plasmid constructed in the context of this example makes it possible to transcribe, in mammalian cells in culture ex vivo, a bicistronic RNA encoding a truncated H2-Kk protein (mouse MHC class I molecule) as a marker for selection of the transfected cells, and encoding the p27Kip1 protein which is a cell cycle-inhibiting protein. The bicistronic RNA also contains, in the intercistron space, a binding site for the R17 bacteriophage capsid protein. This bicistronic RNA is very diagrammatically represented in FIG. 7.
The effector plasmid used is the one for expressing the R17-4G-CVLS fusion protein.
CHO (Chinese hamster ovary) cells are transiently transfected with cationic liposomes using 10 pmol of reporter plasmids and 5 pmol of activator plasmids per 1 million cells. Twelve hours after transfection, the cells are treated for 8 hours with the farnesyltransferase inhibitor (Cys-Val-3(2-naphthyl)Ala-Met; Sigma C4433) at a final concentration of 1 μM in the culture medium. […]
The expression of the p27 protein (ap27 line) is examined by Western blotting with a monoclonal antibody (Ref. 610241, BD Bioscience Pharmingen). The expression of the R17-4G-CVLS fusion protein (aHA line) is detected by Western blotting using a monoclonal antibody against the HA peptide (Eurogentec) located at the NH2-terminal end of the R17-4G-CVLS protein. […]

[7] = system: translation of the second cistron (LucF/LucR ratio), SKHep-1 human hepatoma cells; test: LucF/LucR translation induction in transiently transfected SKHep-1 cells (FIG. 1); details: inhibitor 15 μM, 1 to 8 hours
Text: 1. “Reporter” plasmids that make it possible to transcribe, in the cells, a bicistronic RNA encoding the LucR (Renilla luciferase) reporter protein in the first cistron and the LucF (firefly luciferase) reporter protein in the second cistron. The plasmids pCRL30-R17 or pCRL138-R17 also contain, in the intercistron space of the mRNA, a binding site for the capsid protein of the R17 bacteriophage (plasmid).
2. Effector plasmids which will be able to express, in the cells: • a fusion protein consisting of the R17 phage capsid protein fused with the C-terminal region of the eIF4G translation initiation factor, for the plasmid pCI R17-4G, • a fusion protein consisting of the R17 phage capsid protein fused with the C-terminal region of the eIF4G translation initiation factor and a farnesylation protein domain (of protein sequence CVLS), for the plasmid pCI R17-4G-CVLS.
The procedure is carried out in the following way. SKHep-1 human hepatoma cells are transiently transfected with cationic liposomes using 10 pmol of reporter plasmids and 5 pmol of activator plasmids per 1 million cells. […]
After lysis of the cells, the LucR and LucF activities are assayed using the “Dual-Luciferase (TM) reporter system” kit (Promega E1980) on a Berthold LB96B luminescence device. […]

Row | Molecule | induction (quotient of LucF and LucR relative to the DMSO control) ([1]; HeLa, integrated R17-4G-CVLS) | activation of translation relative to the DMSO controls, R17-4G-SVLS [3] | activation of translation relative to the DMSO controls, R17-4G-CVLS [3] | activation of translation relative to the DMSO controls, R17-4G-CVLL [3] | HMGCoA-reductase inhibiting activity (LucF/LucR ratio relative to a DMSO control) [4] | effect of mevalonate on the inhibitory activity (LucF/LucR ratio) [4] | further results
1 | COC(=O)[C@H](CCSC)NC(=O)c1ccc(NC[C@@H](N)CS)cc1-c1ccccc1 [FTI 277] | has an inducer effect | neither of the two molecules is capable of activation | capable of activating translation | only GGTI 298 is capable of activating translation |  |  | treatment time at which the maximum activation effect is obtained ([1]; HeLa, integrated R17-4G-CVLS, kinetics FIG. 2A): 8 h; reversibility of the activation effect (LucF/LucR activation ratio after removal of the product) ([1]; cells treated for 8 h with 1 μM, then product removed, FIG. 2B): reversible; relocalization of fusion proteins to the cytoplasm [2]: relocalizes only the YFP-CVLS and R17-4G-CVLS proteins to the cytoplasm
2 | COC(=O)[C@H](CC(C)C)NC(=O)c1ccc(NC[C@@H](N)CS)cc1-c1cccc2ccccc12 [GGTI 298] | has no activation effect | neither of the two molecules is capable of activation | only FTI 277 is capable of activating translation | capable of activating translation |  |  | 
3 | c1ccc(Cc2ccc(OCCN3CCCC3)cc2)cc1 [PBPE] |  |  |  |  | found to be an inhibitor of HMGCOA-reductase | compensated for by the presence of mevalonate | 
4 | CC/C(=C(\c1ccccc1)c1ccc(OCCN(C)C)cc1)c1ccccc1 [tamoxifen] |  |  |  |  | inhibits this enzyme even at low concentrations | reversed or compensated for by mevalonate | farnesylation / FPP-synthase inhibition (LucF/LucR ratio) [5]: is also an FPP-synthase inhibitor
5 | Cys-Val-3(2-naphthyl)Ala-Met [farnesyltransferase inhibitor] |  |  |  |  |  |  | amount of p27 (Western blotting) ([6]; CHO cotransfected with pR17-4G-CVLS and pK-R17-p27, inhibitor 1 μM): An increase in the amount of p27; amount of fusion protein produced (Western blotting, anti-HA) ([6]; CHO cotransfected, with or without inhibitor 1 μM): identical with or without treatment with the inhibitor; level of translation induced by the expression of the R17-4G fusion protein under inhibitor treatment (LucF/LucR ratio) ([7]; SKHep-1, effector pCI R17-4G): not modulated; increase in translation induced by the R17-4G-CAAX inducer fusion protein under inhibitor treatment (LucF/LucR ratio) ([7]; SKHep-1, effector pCI R17-4G-CVLS): dependent on the time of treatment
